# Results as given in patent US12502480B1, “System and method for administration of a substance” (Abusarah, Inc., priority 2025, dated 2025).
# Read-outs that look alike come from different tables or passages of the source.
# Tests used:
# [1] = cited from earlier work
# [2] = cited from earlier work; for Cmax / Tmax: arterial
# [3] = Pharmacokinetics of inhaled (nebulized) esketamine versus IV infusion, arterial concentrations; conditions: comparison across Examples 3 and 4, not within the same individuals
# [4] = cited from earlier work; for Cmax / AUC0-24 h: Caucasians 18-60 years of age; for Cmax: in ng/mL; for AUC0-24 h: in ng·h/mL
# [5] = cited from earlier work; remark: listed apart in the source
# [6] = clinical; conditions: human, in vivo
# [7] = inhalation of 0.35 mg/kg esketamine
# [8] = inhalation of 0.5 mg/kg esketamine
# [9] = inhalation of 0.7 mg/kg esketamine
# [10] = IN administration, based upon the models
smiles,measurement,setting,value
Cc1cccc([C@H](C)c2cnc[nH]2)c1C [dexmedetomidine],"disposition, intravenous versus intranasal administration",[1]; 2-compartment disposition model,similar
same,intranasal bioavailability,[1]; both atomization and drops,~40%
same,uptake kinetics of atomized and intranasal relative to IV,"[1]; in vivo, iv",slower update kinetics
same,absorption rate constant (kabs),[1]; intranasal by atomizer,0.857 h⁻¹
same,mean transit time (delay in uptake),[1]; intranasal by atomizer,0.176 h
same,absorption rate constant (kabs),[1]; intranasal by drops,0.725 h⁻¹
same,mean transit time (delay in uptake),[1]; intranasal by drops,0.163 h
"CN[C@]1(c2ccccc2Cl)CCCCC1=O [esketamine, S-ketamine]",fraction of dose directly absorbed through the alveoli,[2]; INH administration,70%
same,"fraction of dose travelling via a slower pathway (lung, GI or oropharyngeal absorption)",[2]; INH administration,30%
same,rate constant of the slow transit,[2]; INH administration,0.05 min⁻¹
same,half-life of the slow transit,"[2]; INH administration, from rate constant",13 min
same,dose-dependent reduction in bioavailability,"[2]; INH, at the higher doses",20%
same,modeled F value (extent of bioavailability),"[2]; across INH doses, multicompartment model",0.70
same,bioavailability,[2]; following INH administration,70%
same,fraction metabolized to noresketamine,[2]; in vivo,78%
same,Cmax,[2]; [7],128 ng/mL
same,Tmax,[2]; [7],22 min
same,Cmax,[2]; [8],180 ng/mL
same,Tmax,[2]; [8],15 min
same,Cmax,[2]; [9],227 ng/mL
same,Tmax,[2]; [9],25 min
same,absorption following INH versus IN,[3],more rapid
same,Cmax,[4]; 28 mg IN esketamine,43.8
same,AUC0-24 h,[4]; 28 mg IN esketamine,147.3
same,Cmax,[4]; 56 mg IN esketamine,72.5
same,AUC0-24 h,[4]; 56 mg IN esketamine,254.7
same,Cmax,[4]; 84 mg IN esketamine,101
same,AUC0-24 h,[4]; 84 mg IN esketamine,362.2
same,fraction of dose absorbed through the nasal cavity,[4]; [10],~54%
same,fraction of dose swallowed,[4]; [10],46%
same,swallowed percentage reaching the systemic circulation after first-pass metabolism,[4]; IN administration,18.6%
same,mean absorption time,[4]; absorption through the gut,2.02 h
same,mean absorption time,[4]; absorption through the nasal mucosa,0.333 h
same,absolute bioavailability,[4]; intranasal,~50%
C=CCN1CC[C@]23c4c5ccc(O)c4O[C@H]2C(=O)CC[C@@]3(O)[C@H]1C5 [naloxone],"K (elimination rate constant), best-fit value","0.4 mg IV, single elimination model",12.16 h⁻¹
same,kabs (absorption rate constant),"IN doses of 1, 2 and 4 mg, best fit of one-phase association and dissociation model",4.47 h⁻¹
same,"elimination rate-constant, mean value","IN doses of 1, 2 and 4 mg, model fit",0.82 h⁻¹
same,bioavailability,[5]; IM/SC dose,98.3%
same,bioavailability,[5]; nasal spray,40-55%
same,Cmax,[6]; 1 mg,2.1 ng/mL
same,Cmax,[6]; 2 mg,4.3 ng/mL
same,Cmax,[6]; 4 mg,10.1 ng/mL
same,half-life,"[6]; iv, 0.4 mg",3.4 min
N[C@]1(c2ccccc2Cl)CCCCC1=O [noresketamine],Cmax,[2]; [7],52 ng/mL
same,Tmax,[2]; [7],63 min
same,Cmax,[2]; [8],97 ng/mL
same,Tmax,[2]; [8],48 min
same,Cmax,[2]; [9],153 ng/mL
same,Tmax,[2]; [9],41 min
same,Cmax,[4]; 28 mg IN esketamine,59.1
same,AUC0-24 h,[4]; 28 mg IN esketamine,274.4
same,Cmax,[4]; 56 mg IN esketamine,119.7
same,AUC0-24 h,[4]; 56 mg IN esketamine,516.3
same,Cmax,[4]; 84 mg IN esketamine,180
same,AUC0-24 h,[4]; 84 mg IN esketamine,758
